Test results reported in US11465972B2, “Inhibitors of oxidized low-density lipoprotein receptor 1 and methods of use thereof” (United States Government as represented by the Department …, priority 2015, dated 2022).
Entries after “also recorded” stand apart in the source; their conditions may differ.

Experiments:
Assay type in all cases: cell-based, human
P38 MAPK = experiment: ox-LDL-induced activation (phosphorylation) of P38 MAPK in HUVECs (Western blotting); conditions: 200 nM
Procedure: (§1) FIG. 4A, FIG. 4B, FIG. 4C, FIG. 4D and FIG. 4E depict the effect of lead molecules on ox-LDL-induced the activation of MAPKs in HUVECs, VCAM-1 expression and monocyte adhesion onto HUVECs. […] (FIG. 4B) Western blot analyses showing phospho-p38MAPK expression in HUVECs following exposure to 200 nM of each compound for 30 min, and subsequently exposed to 5 μg/mL ox-LDL for 6 hours. […] (FIG. 4D) The variation of VCAM-1 mRNA expression levels with different concentrations of the led compounds. The concentrations are indicated on the X-axis and the VCAM-1 mRNA levels are shown on the Y-axis. The plots for all five molecules are shown in separate colors. […] Graphs show data as mean (±SD); n=3 (for Western blot and PCR assays) or n=20 (for monocyte adhesion assay). *P<0.01 vs. control; #P<0.01 or <0.05 vs. ox-LDL group.
To assess downstream effects of each candidate molecule, ox-LDL induced expression and activation of ERK1/2 and P38MAPK was measured in HUVECs in the absence or presence of each candidate molecule (200 nM). […] Importantly, unphosphorylated MAPKs were not affected by any of the candidate molecules.
(§2) HUVECs were plated into 6-well cell culture plates. When the cells were reached 70% confluence, they were treated with 200 nM of each of 5 molecules for 30 min, and subsequently exposed to […] ox-LDL for 6 h. After washing with PBS for 2 times, the cells were treated with Cell Lysis Buffer (Promega, Madison, Wis.) with protease Inhibitor and phosphatase Inhibitor (Sigma-Aldrich, St. Louis, Mo.). The protein concentrations were measured by Bradford protein assay. Proteins (20 tg) were separated by electrophoresis in 12% precast SDS-PAGE gels, and were transferred onto Nitrocellulose Blotting Membrane (GE Healthcare Life Science, Piscataway, N.J.). The membranes were then incubated with LOX-1, VCAM-1 (Abcam, Cambridge, Mass.), ERK1/2, phospho-ERK1/2, phospho-p38MAPK (Cell Signaling Technology, Inc., Danvers, Mass.), or […] (Santa Cruz Biotechnology, Inc., Dallas, Tex.) primary antibodies (1:1000˜1:2000) in blocking solution at 4° C. overnight. Following wash with TBS-1 for 3 times, the blots were incubated with HRP-conjugated secondary antibodies (1:10000) in blocking solution for 1 hour at room temperature. After 3 washes with PBS, the blots were treated with Western Blotting Luminol Reagents (Santa Cruz Biotechnology) for 3 min and then exposed to Blue Basic Autorad Film (GeneMate, Kaysville, Utah). The protein bands were scanned by a Gel Doc™ XR System (Bio-Rad, Hercules, Calif.), and the density of each band was quantified by Image J software. The relative expression of target proteins was calculated with comparison to […] bands.

[1] = tested on: VCAM-1 protein expression; experiment: ox-LDL-induced VCAM-1 protein expression in HUVECs (Western blotting); conditions: 200 nM, 5 μg/ml ox-LDL
Procedure: as §1
It is known that the activation of LOX-1 by ox-LDL in endothelial cells stimulates the expression of leukocyte adhesion molecules^26. In this study, VCAM-1 expression in HUVECs in the presence of 5 μg/ml ox-LDL was measured. […] VCAM-1 mRNA expression in HUVECs exposed to 5 μg/mL ox-LDL for 6 hrs was also measured.
as §2

[2] = tested on: adhesion of monocytes to HUVECs; experiment: Monocyte adhesion assay on HUVECs; conditions: 200 nM; for effect on monocyte adhesion to HUVECs (in words): ox-LDL treated
Procedure: as §1
The ox-LDL-induced expression of adhesion molecules, such as VCAM-1, facilitates the adhesion of inflammatory cells, such as monocytes.
Human monocytes were isolated from blood from the healthy donors and cultured in DMEM supplemented with 10% FBS. HUVECs were plated into 6-well plates. When the cells reached 70-80% confluence, they were treated with 200 nM of each of 5 molecules for 30 min, and subsequently exposed to […] ox-LDL for 6 h. After washing with PBS, the medium was replaced, and then monocytes ([…]) were added to each well (4 wells/group) onto HUVECs. Thirty minutes later, the medium containing monocytes were aspired and the unattached monocytes were carefully washed out with PBS. Five fields of each well were randomly captured under a microscope. The number of adherent monocyte was counted and averaged.

SMILES | effect on ox-LDL-induced activation of P38 MAPK (in words) (P38 MAPK) | reduction of the level of phospho-P38 MAPK (P38 MAPK) | effect on ox-LDL-induced VCAM-1 protein expression [1] | reduction of monocyte adhesion [2] | effect on monocyte adhesion to HUVECs (in words) [2] | effect on ox-LDL-induced VCAM-1 protein expression ([1]; listed as MoL-4)
CCOCCCNC(=O)CCN1C(=O)COc2ccccc21 [Mol-1] | significantly inhibited | around 60% | significantly reduced | 25% | decreased the number of monocytes adherent to HUVECs; also recorded: markedly inhibited | –
Cc1cc(C)n(CC(O)COc2ccccc2)n1 (centres unmarked) [Mol-5, 1-(3,5-dimethyl-1H-pyrazol-1-yl)-3-phenoxypropan-2-ol] | significantly inhibited; also recorded: maximum inhibition | 75% | significantly reduced; also recorded: significantly inhibited | 35% | decreased the number of monocytes adherent to HUVECs; also recorded: markedly inhibited | –
CCCn1c(CCNC(=O)CCCO)nc2ccccc21 [Mol-4] | significantly inhibited | around 60% | significantly inhibited | 30% | decreased the number of monocytes adherent to HUVECs; also recorded: markedly inhibited | significantly reduced
CC(C)(C)C(=O)NCCc1nc2ccccc2n1Cc1ccccc1F [Mol-2] | no significant effect | – | – | – | – | –
